Results reported in the Kinase Knowledgebase extract (Sharma et al. 2016).

Target: PIK3CD (Human) (UniProt O00329)
Assay: Assessment of PIK3CD Kinase Activity

Chain of PIK3CD (Human) (O00329 whole entry, looked up): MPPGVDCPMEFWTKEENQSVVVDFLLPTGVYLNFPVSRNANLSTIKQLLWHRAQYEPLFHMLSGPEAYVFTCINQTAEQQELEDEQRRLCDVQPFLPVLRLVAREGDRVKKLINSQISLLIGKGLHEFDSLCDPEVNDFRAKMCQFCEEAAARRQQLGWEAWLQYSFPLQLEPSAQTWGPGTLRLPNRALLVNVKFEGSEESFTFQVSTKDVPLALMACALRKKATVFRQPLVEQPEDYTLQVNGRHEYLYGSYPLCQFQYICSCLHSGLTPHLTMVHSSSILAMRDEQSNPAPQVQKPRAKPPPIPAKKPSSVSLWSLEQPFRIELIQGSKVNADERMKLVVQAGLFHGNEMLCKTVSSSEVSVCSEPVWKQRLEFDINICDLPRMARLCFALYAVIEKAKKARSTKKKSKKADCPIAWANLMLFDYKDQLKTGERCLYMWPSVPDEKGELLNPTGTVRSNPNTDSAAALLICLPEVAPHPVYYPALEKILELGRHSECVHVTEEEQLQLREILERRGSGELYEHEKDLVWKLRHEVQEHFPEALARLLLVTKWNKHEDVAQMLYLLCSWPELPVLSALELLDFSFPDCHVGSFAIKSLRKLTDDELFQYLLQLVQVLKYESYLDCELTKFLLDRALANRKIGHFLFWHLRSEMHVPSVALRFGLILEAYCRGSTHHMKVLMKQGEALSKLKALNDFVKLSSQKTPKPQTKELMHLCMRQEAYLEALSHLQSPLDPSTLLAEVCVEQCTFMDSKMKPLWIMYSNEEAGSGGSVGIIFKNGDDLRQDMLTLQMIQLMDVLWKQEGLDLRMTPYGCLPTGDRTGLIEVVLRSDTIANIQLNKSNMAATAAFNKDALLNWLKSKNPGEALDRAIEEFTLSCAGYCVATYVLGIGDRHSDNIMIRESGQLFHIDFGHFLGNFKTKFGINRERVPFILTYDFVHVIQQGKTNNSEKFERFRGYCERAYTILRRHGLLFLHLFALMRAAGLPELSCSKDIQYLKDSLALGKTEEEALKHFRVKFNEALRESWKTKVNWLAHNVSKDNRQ

IC50, < 500 nM:
CN1CCN(Cc2ccc3nc(-c4cccc5[nH]ccc45)nc(N4CCOCC4)c3c2)CC1
C[C@@H]1CN(Cc2ccc3nc(-c4cccc5[nH]ccc45)nc(N4CCOCC4)c3c2)C[C@H](C)N1
OCCN1CCN(Cc2ccc3nc(-c4cccc5[nH]ccc45)nc(N4CCOCC4)c3c2)CC1
CN1CCC(N(C)Cc2ccc3nc(-c4cc(F)cc5[nH]ccc45)nc(N4CCOCC4)c3c2)CC1
c1cc(-c2nc(N3CCOCC3)c3cc(CN4CC5CNCC5C4)ccc3n2)c2cc[nH]c2c1 (configuration not stated)
c1cc(-c2nc(N3CCOCC3)c3cc(CN4CC5CCC(C4)N5)ccc3n2)c2cc[nH]c2c1
c1cc(-c2nc(N3CCOCC3)c3cc(CN4CCN5CCC[C@H]5C4)ccc3n2)c2cc[nH]c2c1
c1cc(-c2nc(N3CCOCC3)c3cc(CN4CCC(N5CCOCC5)CC4)ccc3n2)c2cc[nH]c2c1
c1cc(-c2nc(N3CCOCC3)c3cc(CN4CC5(CCNCC5)C4)ccc3n2)c2cc[nH]c2c1
CN1CCC(N(C)Cc2ccc3nc(-c4cccc5[nH]ccc45)nc(N4CCOCC4)c3c2)CC1
Fc1ccc2[nH]ccc2c1-c1nc(N2CCOCC2)c2cc(CN3C[C@@H]4C[C@H]3CN4)ccc2n1
Fc1cc(-c2nc(N3CCOCC3)c3cc(CN4CCC(N5CCOCC5)CC4)ccc3n2)c2cc[nH]c2c1
